Consider eight compounds from PMC6017328, “Tetrasubstituted Imidazolium Salts as Potent Antiparasitic Agents against African and American Trypanosomiases” (Molecules : A Journal of Synthetic Chemistry and Natural …, 2018).

One may read the EC50 as the concentration at which the effect is half-maximal. The EC90 is the concentration at which the effect reaches the 90% level.

Where two headings read alike, the source gives them in different places.

For data set [1] the following is noted: cited from earlier work.
Data set [2] concerns L6 rat myoblast cells. Description: Cytotoxic activity against rat skeletal myoblast L6 cells. Type of data set: cell-based. The conditions noted are these: 144 h; cytotoxicity, L6 rat myoblasts, 6 days. As for the experimental part:
Cytotoxicity was assessed using microtiter plates following a previously described protocol. Briefly, L6 cells were seeded at 1 × 10^4 mL^−1 in 200 μL of growth medium at different compound concentrations. The plates were incubated for 6 days at 37 °C and then 20 μL resazurin was added to each well. After a further 8 h incubation, fluorescence was determined using a Spectramax plate reader.

The subject of data set [3] is Bloodstream form T. brucei (strain 221). Briefly: T. brucei culturing and evaluation of trypanocidal activity (resazurin). Type of data set: cell-based. The conditions noted are these: Trypanosoma brucei; for EC50: concentration reducing parasite growth by 50%, triplicate; for EC90: concentration reducing parasite growth by 90%. As for the experimental part: Bloodstream form T. brucei (strain 221) were grown as described previously. […] Logarithmically growing T. brucei were diluted to 2.5 × 10^4 mL^−1 and aliquoted into 96-well plates. Then, compounds were added at a range of concentrations and the plates incubated at 37 °C. Each compound was tested in triplicate. Resazurin was added after 48 h and the plates incubated for a further 16 h. The plates were then read in a Spectramax plate reader. Results were analyzed using GraphPad Prism.
(Alamar Blue is a resazurin reagent that responds to reducing activity.)

The subject of data set [4] is T. cruzi epimastigotes (CL Brener stain). Briefly: T. cruzi culturing and evaluation of trypanocidal activity (resazurin). Type of data set: cell-based. To be noted: Trypanosoma cruzi; for EC90: epimastigotes, CL Brener, growth reduced by 90%. As to the method: Activity was determined using 96-well plate assays. Cultures were diluted to 2.5 × 10^5 mL^−1, aliquoted in triplicate at a range of compound concentrations, and incubated for 4 days. Resazurin was added and the plates incubated for a further 3 days, then read in a Spectramax plate reader as outlined above.

The nature of data set [5]: PAMPA-BBB assay (brain permeability). Type of data set: in vitro ADME, porcine. To be noted: for Papp: pig, PAMPA, PBS:EtOH 70:30, n=3 ± S.D. in Table S5, read-out: PAMPA-BBB permeability (Pe), experimental value; for CNS Prediction: predictive penetration in the CNS from PAMPA-BBB Pe.
Method: The in vitro permeability (Pe) of the tested compounds and fourteen reference drugs through a lipid extract of porcine brain membrane was assessed by using a parallel artificial membrane permeation assay. Commercial drugs and the target compounds were tested using a mixture of phosphate-buffered saline (PBS): EtOH 70:30. The assay was validated by comparing the experimental permeability with the reported values of the reference drugs.
Data set [6] relates to Bloodstream form T. brucei (strain 221). The conditions noted are these: read-out: EC50 (T. brucei); comparison drug; cited from earlier work.
The test system of data set [7] is T. cruzi epimastigotes (CL Brener stain). The conditions noted are these: read-out: EC50 (T. cruzi); comparison drug; cited from earlier work.

Take `CN/C(=N/CCSCc1nc[nH]c1C)NC#N` [Cimetidine]: in data set [1], the “PAMPA-BBB permeability (Pe), bibliography value” was 0.0 10-6 cm s-1.
Consider `Cc1ccc(-n2c[n+](C(C)(C)C)c(Cc3ccccc3)c2-c2ccccc2)cc1` [Compound 1a], for which the EC50 worked out at 33900 ± 3300 nM in data set [2], 180 ± 10 nM in data set [3] and 1850 ± 290 nM in data set [4]. In addition, the EC90 in data set [3] came out at 280 ± 70 nM; in data set [4], 3410 ± 140 nM. The Papp in data set [5] is 4.2 ×10⁻⁶ cm/s. Further, in data set [5], the “CNS Prediction” value is on record as “CNS+/-”.
For `COc1ccc(-n2c[n+](-c3ccc(OC)cc3)c(Cc3ccccc3)c2-c2ccc(C)cc2)cc1` [Compound 1b], the response in data set [2] was half-maximal at 4600 ± 380 nM (EC50). Also, in data set [3], it took 40 nM to reach a half-maximal effect (EC50) and the 90% effect level (EC90) was put at 50 nM. In data set [4], this compound yielded an EC50 of 440 ± 10 nM and an EC90 of 1290 ± 50 nM. Further, in data set [5], the Papp amounted to 4.9 ×10⁻⁶ cm/s and the “CNS Prediction” value is “CNS+/-”.
The compound `COc1ccc(-n2c[n+](C(C)(C)C)c(Cc3ccc(C)cc3)c2-c2ccc(Cl)cc2)cc1` [Compound 1c] returned an EC50 in data set [2] of 9690 ± 580 nM. In data set [3], this compound displayed an EC50 of 180 ± 10 nM and an EC90 of 200 ± 10 nM. In data set [4], this compound gave an EC50 of 1720 ± 390 nM and an EC90 of 2980 ± 190 nM. Also, in data set [5], the Papp amounted to 2.6 ×10⁻⁶ cm/s and the “CNS Prediction” value was “CNS+/-”.
Turning to `Cc1ccc(-n2c[n+](-c3ccc4ccccc4c3)c(Cc3ccccc3)c2-c2ccc(Cl)cc2)cc1` [Compound 1d], the results for the EC50 in data set [2], in data set [3] and in data set [4] were 4090 ± 280 nM, 70 nM and 540 ± 80 nM, respectively. For the same compound, the results for the EC90 in data set [3] and in data set [4] were 90 nM and 1000 ± 40 nM, respectively. Besides, the Papp in data set [5] stood at 2.4 ×10⁻⁶ cm/s. Further, the “CNS Prediction” value in data set [5] is “CNS+/-”.
On to `Cc1ccc(-n2c[n+](CC(=O)[O-])c(Cc3ccccc3)c2-c2ccccc2)cc1` [Compound 1e], for which the EC50 in data set [2] was over 130000 nM. In data set [3], this compound returned an EC50 of 5260 ± 10 nM and an EC90 of 6790 ± 90 nM. In data set [4], this compound came in with an EC50 of over 20000 nM and an EC90 of over 20000 nM. In addition, in data set [5] (according to the limits of Di et al., low Pe < 1.89, uncertain 5.16 > Pe 10^−6 cm s^−1 > 1.89), the “BBB permeation (in words)” value was “low BBB permeation”. Also, in data set [5], the Papp came to 1.6 ×10⁻⁶ cm/s and the “CNS Prediction” value is reported as “CNS-”.
Take `CN1C(C(=O)Nc2ccccn2)=C(O)c2ccccc2S1(=O)=O` [Piroxicam, reference compound]: the Papp in data set [5] turned out to be 1.7 ± 0.03 ×10⁻⁶ cm/s.
In the case of `CC1CS(=O)(=O)CCN1/N=C/c1ccc([N+](=O)[O-])o1` (stereo not shown) [nifurtimox], the EC50 in data set [6] and in data set [7] was about 2000 nM throughout.
